# Source: patent publication US9730914B2, “3,5-diaminopyrazole kinase inhibitors” (Axikin Pharmaceuticals, Inc., priority 2014, dated 2017)
# Experiments:
# JAK2 = target: T1, JAK2 (Homo sapiens, UniProt O60674); assay: Kinase competition binding assay (Kd, qPCR readout), JAK2; settings: for Kd: Kd class, JAK2, read-out: JAK2 Activity Level; for RCK:JAK2 selectivity ratio: ratio Kd (JAK2): Kd(RCK)
# T1 construct: made in house; host or cells: E. coli BL21-derived host (T7 phage) or HEK-293
# Procedure: (§1) For most assays, kinase-tagged T7 phage strains were prepared in an E. coli host derived from the BL21 strain. E. coli were grown to log-phase and infected with T7 phage and incubated with shaking at 32° C. until lysis. The lysates were centrifuged and filtered to remove cell debris. The remaining kinases were produced in HEK-293 cells and subsequently tagged with DNA for quantitative PCR (qPCR) detection.
# (§2) Streptavidin-coated magnetic beads were treated with biotinylated small molecule ligands for 30 minutes at room temperature to generate affinity resins for kinase assays. The liganded beads were blocked with excess biotin and washed with blocking buffer (SeaBlock (Pierce), 1% BSA, 0.05% Tween 20, 1 mM DTT) to remove unbound ligand and to reduce nonspecific binding. Binding reactions were assembled by combining kinases, liganded affinity beads, and test compounds in 1× binding buffer (20% SeaBlock, 0.17×PBS, 0.05% Tween 20, 6 mM DTT). All reactions were performed in polystyrene 96-well plates in a final volume of 0.135 mL. The assay plates were incubated at room temperature with shaking for 1 hour and the affinity beads were washed with wash buffer (1×PBS, 0.05% Tween 20). The beads were then re-suspended in elution buffer (1×PBS, 0.05% Tween 20, 0.5 μM non-biotinylated affinity ligand) and incubated at room temperature with shaking for 30 minutes. The kinase concentration in the eluates was measured by qPCR.
# (§3) An 11-point 3-fold serial dilution of each test compound was prepared in 100% DMSO at 100× final test concentration and subsequently diluted to 1× in the assay (final DMSO concentration=1%). Most Kd values were determined using a compound top concentration=30,000 nM. If the initial Kd determined was <0.5 nM, (the lowest concentration tested), the measurement was repeated with a serial dilution starting at a lower top concentration. A more detailed description of this assay may be found in Fabian, M. A. et al. Nat. Biotechnol. 2005, 23, 329-336, which is incorporated herein in its entirety.
# (§4) The biological results of inhibition of the kinase domain protein of RC kinase (RCK) and JAK2 and JAK3 are summarized in Tables 2 and 3, wherein A represents a Kd of <50 nM; B represents 50 nM<Kd<100 nM; C represents 100 nM<Kd<1000 nM; and D represents a Kd>1000 nM.
# Additionally, RCK:JAK2 selectivity, as measured by the ratio Kd (JAK2): Kd(RCK) is represented as follows: A represents Kd (JAK2): Kd (RCK)>100; B represents 10<Kd(JAK2): Kd (RCK)<100; C represents 1<Kd (JAK2): Kd (RCK)<10; and D represents Kd(JAK2): Kd (RCK)<1.
# [1] = target: T2, kinase domain protein of RC kinase (RCK) (Homo sapiens, UniProt Q56UN5); assay: Kinase competition binding assay (Kd, qPCR readout), RC kinase; settings: Kd class, read-out: RCK Activity Level
# T2 construct: made in house; host or cells: E. coli BL21-derived host (T7 phage) or HEK-293
# T2 sequence (Q56UN5 1061-1324 limits assumed): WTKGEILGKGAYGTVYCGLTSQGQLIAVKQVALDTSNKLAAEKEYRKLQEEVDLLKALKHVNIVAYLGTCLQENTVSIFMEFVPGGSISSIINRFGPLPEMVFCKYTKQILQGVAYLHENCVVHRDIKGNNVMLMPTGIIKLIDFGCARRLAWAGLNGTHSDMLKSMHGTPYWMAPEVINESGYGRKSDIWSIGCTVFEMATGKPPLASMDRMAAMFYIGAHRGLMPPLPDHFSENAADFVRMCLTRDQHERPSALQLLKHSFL
# Procedure: as §1, §2, §3, §4
# JAK3 = target: T3, JAK3 (Homo sapiens, UniProt P52333); assay: Kinase competition binding assay (Kd, qPCR readout), JAK3; settings: for Kd: read-out: JAK3 Activity Level; for RCK:JAK3 selectivity ratio: ratio Kd (JAK3): Kd (RCK)
# T3 construct: made in house; host or cells: E. coli BL21-derived host (T7 phage) or HEK-293
# T3 sequence (P52333 811-1124 limits assumed): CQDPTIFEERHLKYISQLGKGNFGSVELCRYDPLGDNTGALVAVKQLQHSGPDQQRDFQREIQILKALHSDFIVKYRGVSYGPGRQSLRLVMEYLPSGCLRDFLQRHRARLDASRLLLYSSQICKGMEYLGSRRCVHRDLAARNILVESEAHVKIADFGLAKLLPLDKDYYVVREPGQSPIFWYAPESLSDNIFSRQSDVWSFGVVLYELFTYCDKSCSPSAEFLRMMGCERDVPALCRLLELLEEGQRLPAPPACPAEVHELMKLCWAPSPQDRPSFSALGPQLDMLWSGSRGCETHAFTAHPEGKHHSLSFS
# Procedure: as §1, §2, §3, §4
# Similarly, RCK:JAK3 selectivity, as measured by the ratio Kd (JAK3): Kd (RCK) is represented as follows: A represents Kd (JAK3): Kd (RCK)>100; B represents 10<Kd (JAK3): Kd (RCK)<100; C represents 1<Kd (JAK3): Kd (RCK)<10; and D represents Kd (JAK3): Kd(RCK)<1.
# T1 sequence (O60674 840-1132 limits assumed): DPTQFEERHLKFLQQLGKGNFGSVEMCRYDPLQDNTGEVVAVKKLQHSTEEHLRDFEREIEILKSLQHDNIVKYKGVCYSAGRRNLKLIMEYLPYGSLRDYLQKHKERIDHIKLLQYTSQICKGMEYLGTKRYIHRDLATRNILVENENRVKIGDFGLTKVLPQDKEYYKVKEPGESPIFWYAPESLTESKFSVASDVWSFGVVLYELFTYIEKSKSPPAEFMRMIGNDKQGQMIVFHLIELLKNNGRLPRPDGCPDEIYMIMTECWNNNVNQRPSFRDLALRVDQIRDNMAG
smiles,measurement,setting,value
"Cc1cc(Nc2n[nH]c(NCc3cc(C)c(O)c(C)c3)c2C(N)=O)ccc1N1CCN(C)CC1 [Compound 29, 5-((4-hydroxy-3,5-dimethylbenzyl)amino)-3-((3-methyl-4-(4-methylpiperazin-1-yl)phenyl)amino)-1H-pyrazole-4-carboxamide]",Kd,JAK2,100 to 1000 nM
same,RCK:JAK2 selectivity ratio,JAK2,B (B represents 10<Kd(JAK2): Kd (RCK)<100)
same,Kd,[1],< 50 nM
same,Kd,"JAK3; Kd class, JAK3",> 1000 nM
same,RCK:JAK3 selectivity ratio,JAK3,B (B represents 10<Kd (JAK3): Kd (RCK)<100)
C[C@@H]1CN(c2ccc(Nc3n[nH]c(NCc4ccc(O)cc4)c3C(N)=O)cc2)C[C@H](C)O1 [reference compound],Kd,JAK2,< 50 nM
same,RCK:JAK2 selectivity ratio,JAK2,D (D represents Kd(JAK2): Kd (RCK)<1)
same,Kd,[1],< 50 nM
same,Kd,"JAK3; Kd class, JAK3",< 50 nM
same,RCK:JAK3 selectivity ratio,JAK3,C (C represents 1<Kd (JAK3): Kd (RCK)<10)
"Cc1cc(CNc2[nH]nc(Nc3ccc(N4CCOCC4)c(F)c3)c2C(N)=O)cc(C)c1O [Compound 37, 3-((3-fluoro-4-morpholinophenyl)amino)-5-((4-hydroxy-3,5-dimethylbenzyl)amino)-1H-pyrazole-4-carboxamide]",Kd,JAK2,> 1000 nM
same,RCK:JAK2 selectivity ratio,JAK2,B (B represents 10<Kd(JAK2): Kd (RCK)<100)
same,Kd,[1],< 50 nM
same,Kd,"JAK3; Kd class, JAK3",> 1000 nM
same,RCK:JAK3 selectivity ratio,JAK3,A (A represents Kd (JAK3): Kd (RCK)>100)
Cc1cc(Nc2n[nH]c(NCc3ccc(O)cc3)c2C(N)=O)cnc1N1CCN(C)CC1 [reference compound],Kd,JAK2,< 50 nM
same,RCK:JAK2 selectivity ratio,JAK2,D (D represents Kd(JAK2): Kd (RCK)<1)
same,Kd,[1],< 50 nM
same,Kd,"JAK3; Kd class, JAK3",< 50 nM
same,RCK:JAK3 selectivity ratio,JAK3,C (C represents 1<Kd (JAK3): Kd (RCK)<10)
"Cc1cc(CNc2[nH]nc(Nc3ccc(-n4ccnc4)cc3)c2C(N)=O)cc(C)c1O [drawing 179, reference compound]",Kd,JAK2,< 50 nM
same,Kd,[1],< 50 nM
same,Kd,"JAK3; Kd class, JAK3",< 50 nM
CN(C)C1CCN(c2ccc(Nc3n[nH]c(NCc4ccc(O)cc4)c3C(N)=O)cc2)CC1 [reference compound],Kd,JAK2,< 50 nM
same,RCK:JAK2 selectivity ratio,JAK2,D (D represents Kd(JAK2): Kd (RCK)<1)
same,Kd,[1],< 50 nM
same,Kd,"JAK3; Kd class, JAK3",< 50 nM
same,RCK:JAK3 selectivity ratio,JAK3,D (D represents Kd (JAK3): Kd(RCK)<1)
"Cc1cc(CNc2[nH]nc(Nc3cnc(N4CCOCC4)c(Cl)c3)c2C(N)=O)cc(C)c1O [Compound 5, 3-((5-chloro-6-morpholinopyridin-3-yl)amino)-5-((4-hydroxy-3,5-dimethylbenzyl)amino)-1H-pyrazole-4-carboxamide]",Kd,JAK2,> 1000 nM
same,RCK:JAK2 selectivity ratio,JAK2,B (B represents 10<Kd(JAK2): Kd (RCK)<100)
same,Kd,[1],100 to 1000 nM
same,Kd,"JAK3; Kd class, JAK3",> 1000 nM
same,RCK:JAK3 selectivity ratio,JAK3,B (B represents 10<Kd (JAK3): Kd (RCK)<100)
"Cc1cc(CNc2[nH]nc(Nc3ccc(CN4CCCC4)cc3)c2C(N)=O)cc(C)c1O [Compound 35, 5-((4-hydroxy-3,5-dimethylbenzyl)amino)-3-((4-(pyrrolidin-1-ylmethyl)phenyl)amino)-1H-pyrazole-4-carboxamide]",Kd,JAK2,100 to 1000 nM
same,RCK:JAK2 selectivity ratio,JAK2,C (C represents 1<Kd (JAK2): Kd (RCK)<10)
same,Kd,[1],50 to 100 nM
same,Kd,"JAK3; Kd class, JAK3",> 1000 nM
same,RCK:JAK3 selectivity ratio,JAK3,B (B represents 10<Kd (JAK3): Kd (RCK)<100)
NC(=O)c1c(Nc2ccc(N3CCSCC3)cc2)n[nH]c1NCc1ccc(O)cc1 [reference compound],Kd,JAK2,< 50 nM
same,RCK:JAK2 selectivity ratio,JAK2,D (D represents Kd(JAK2): Kd (RCK)<1)
same,Kd,[1],< 50 nM
same,Kd,"JAK3; Kd class, JAK3",< 50 nM
same,RCK:JAK3 selectivity ratio,JAK3,C (C represents 1<Kd (JAK3): Kd (RCK)<10)
"Cc1cc(CNc2[nH]nc(Nc3ccc4[nH]ncc4c3)c2C(N)=O)cc(C)c1O [Compound 22, 3-((1H-indazol-5-yl)amino)-5-((4-hydroxy-3,5-dimethylbenzyl)amino)-1H-pyrazole-4-carboxamide]",Kd,JAK2,> 1000 nM
same,RCK:JAK2 selectivity ratio,JAK2,C (C represents 1<Kd (JAK2): Kd (RCK)<10)
same,Kd,[1],100 to 1000 nM
same,Kd,"JAK3; Kd class, JAK3",> 1000 nM
same,RCK:JAK3 selectivity ratio,JAK3,B (B represents 10<Kd (JAK3): Kd (RCK)<100)
NC(=O)c1c(Nc2ccc(N3CCOCC3=O)cc2)n[nH]c1NCc1ccc(O)cc1 [reference compound],Kd,JAK2,< 50 nM
same,RCK:JAK2 selectivity ratio,JAK2,D (D represents Kd(JAK2): Kd (RCK)<1)
same,Kd,[1],< 50 nM
same,Kd,"JAK3; Kd class, JAK3",< 50 nM
same,RCK:JAK3 selectivity ratio,JAK3,C (C represents 1<Kd (JAK3): Kd (RCK)<10)
C[C@@H]1CC(c2ccc(Nc3n[nH]c(NCc4ccc(O)cc4)c3C(N)=O)cn2)C[C@H](C)O1 (stereo partly drawn) [reference compound],Kd,JAK2,< 50 nM
same,RCK:JAK2 selectivity ratio,JAK2,C (C represents 1<Kd (JAK2): Kd (RCK)<10)
same,Kd,[1],< 50 nM
same,Kd,"JAK3; Kd class, JAK3",< 50 nM
same,RCK:JAK3 selectivity ratio,JAK3,C (C represents 1<Kd (JAK3): Kd (RCK)<10)
"Cc1cc(CNc2[nH]nc(Nc3ccc(N4CCC(C)CC4)cc3)c2C(N)=O)cc(C)c1O [Compound 63, 5-((4-hydroxy-3,5-dimethylbenzyl)amino)-3-((4-(4-methylpiperidin-1-yl)phenyl)amino)-1H-pyrazole-4-carboxamide]",Kd,JAK2,> 1000 nM
same,RCK:JAK2 selectivity ratio,JAK2,B (B represents 10<Kd(JAK2): Kd (RCK)<100)
same,Kd,[1],100 to 1000 nM
same,Kd,"JAK3; Kd class, JAK3",> 1000 nM
same,RCK:JAK3 selectivity ratio,JAK3,B (B represents 10<Kd (JAK3): Kd (RCK)<100)
"Cc1cc(CNc2[nH]nc(Nc3ccc(CN4CCOCC4)cc3)c2C(N)=O)cc(C)c1O [Compound 51, 5-((4-hydroxy-3,5-dimethylbenzyl)amino)-3-((4-(morpholinomethyl)phenyl)amino)-1H-pyrazole-4-carboxamide]",Kd,JAK2,100 to 1000 nM
same,RCK:JAK2 selectivity ratio,JAK2,B (B represents 10<Kd(JAK2): Kd (RCK)<100)
same,Kd,[1],< 50 nM
same,Kd,"JAK3; Kd class, JAK3",> 1000 nM
same,RCK:JAK3 selectivity ratio,JAK3,B (B represents 10<Kd (JAK3): Kd (RCK)<100)
CC(C)N1CCN(c2ccc(Nc3n[nH]c(NCc4ccc(O)cc4)c3C(N)=O)cc2)CC1 [reference compound],Kd,JAK2,< 50 nM
same,RCK:JAK2 selectivity ratio,JAK2,C (C represents 1<Kd (JAK2): Kd (RCK)<10)
same,Kd,[1],< 50 nM
same,Kd,"JAK3; Kd class, JAK3",50 to 100 nM
same,RCK:JAK3 selectivity ratio,JAK3,B (B represents 10<Kd (JAK3): Kd (RCK)<100)
"COc1ccccc1C(=O)Nc1ccc(Nc2n[nH]c(NCc3cc(C)c(O)c(C)c3)c2C(N)=O)cc1 [Compound 55, 5-((4-hydroxy-3,5-dimethylbenzyl)amino)-3-((4-(2-methoxybenzamido)phenyl)amino)-1H-pyrazole-4-carboxamide]",Kd,JAK2,> 1000 nM
same,RCK:JAK2 selectivity ratio,JAK2,B (B represents 10<Kd(JAK2): Kd (RCK)<100)
same,Kd,[1],100 to 1000 nM
same,Kd,"JAK3; Kd class, JAK3",> 1000 nM
same,RCK:JAK3 selectivity ratio,JAK3,B (B represents 10<Kd (JAK3): Kd (RCK)<100)
NC(=O)c1c(Nc2ccc(N3CCOCC3)cn2)n[nH]c1NCc1ccc(O)cc1 [reference compound],Kd,JAK2,< 50 nM
same,RCK:JAK2 selectivity ratio,JAK2,D (D represents Kd(JAK2): Kd (RCK)<1)
same,Kd,[1],< 50 nM
same,JAK3 Activity Level,"JAK3; Kd class, JAK3",.A
same,RCK:JAK3 selectivity ratio,JAK3,D (D represents Kd (JAK3): Kd(RCK)<1)
"Cc1cc(CNc2[nH]nc(Nc3ccc(-c4cnco4)cc3)c2C(N)=O)cc(C)c1O [Compound 38, 5-((4-hydroxy-3,5-dimethylbenzyl)amino)-3-((4-(oxazol-5-yl)phenyl)amino)-1H-pyrazole-4-carboxamide]",Kd,JAK2,> 1000 nM
same,RCK:JAK2 selectivity ratio,JAK2,A (A represents Kd (JAK2): Kd (RCK)>100)
same,Kd,[1],100 to 1000 nM
same,Kd,"JAK3; Kd class, JAK3",> 1000 nM
same,RCK:JAK3 selectivity ratio,JAK3,A (A represents Kd (JAK3): Kd (RCK)>100)
CN1CCN(c2ccc(Nc3n[nH]c(NCc4ccc(O)cc4)c3C(N)=O)cc2)CC1 [reference compound],Kd,JAK2,< 50 nM
same,RCK:JAK2 selectivity ratio,JAK2,C (C represents 1<Kd (JAK2): Kd (RCK)<10)
same,Kd,[1],< 50 nM
same,Kd,"JAK3; Kd class, JAK3",< 50 nM
same,RCK:JAK3 selectivity ratio,JAK3,C (C represents 1<Kd (JAK3): Kd (RCK)<10)
